Source: ChEMBL document CHEMBL3044865, “Herbicidal Activity and Characteristics of Pyraflufen-ethyl for Controlling Broad-leaved Weeds in Cereals” (J Pestic Sci, 2002)
The source made the active and inactive calls. The calls are words filed in the database; no cut-off is given here.

Experiments:
[1] = target: T1, Protoporphyrinogen oxidase 2 (Spinacia oleracea) (UniProt Q94IG7); assay: Inhibition of Stellaria media protoporphyrinogen oxidase by post-emergence herbicidal activity assay
T1 sequence (whole entry): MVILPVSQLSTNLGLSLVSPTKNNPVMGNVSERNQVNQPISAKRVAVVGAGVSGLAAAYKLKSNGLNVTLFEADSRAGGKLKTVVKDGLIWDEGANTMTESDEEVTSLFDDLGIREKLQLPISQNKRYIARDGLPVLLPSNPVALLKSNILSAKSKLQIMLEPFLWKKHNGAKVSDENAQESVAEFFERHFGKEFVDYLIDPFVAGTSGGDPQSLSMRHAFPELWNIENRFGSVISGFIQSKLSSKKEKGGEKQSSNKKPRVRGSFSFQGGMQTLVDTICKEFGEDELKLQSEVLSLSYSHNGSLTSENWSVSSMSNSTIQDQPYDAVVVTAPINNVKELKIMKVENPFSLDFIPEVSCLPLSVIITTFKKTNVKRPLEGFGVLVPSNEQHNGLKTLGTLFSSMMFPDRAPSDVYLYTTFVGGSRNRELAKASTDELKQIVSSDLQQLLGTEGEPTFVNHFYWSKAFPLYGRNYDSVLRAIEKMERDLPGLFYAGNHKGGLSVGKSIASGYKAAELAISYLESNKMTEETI

[2] = target: T1, Protoporphyrinogen oxidase 2 (Spinacia oleracea); assay: Inhibition of Stellaria media protoporphyinogen oxidase assessed as herbicidal activity at 10 g/ha measured after 21 days after treatment under greenhouse by time-course analysis; parameters: scale not given: the % may be the effect or the level left
[3] = target: T2, Protoporphyrinogen oxidase, chloroplastic (Nicotiana tabacum) (UniProt O24163); assay: Inhibition of Veronica hederaefolia protoporphyrinogen oxidase by post-emergence herbicidal activity assay; details: Veronica hederifolia
T2 sequence (whole entry): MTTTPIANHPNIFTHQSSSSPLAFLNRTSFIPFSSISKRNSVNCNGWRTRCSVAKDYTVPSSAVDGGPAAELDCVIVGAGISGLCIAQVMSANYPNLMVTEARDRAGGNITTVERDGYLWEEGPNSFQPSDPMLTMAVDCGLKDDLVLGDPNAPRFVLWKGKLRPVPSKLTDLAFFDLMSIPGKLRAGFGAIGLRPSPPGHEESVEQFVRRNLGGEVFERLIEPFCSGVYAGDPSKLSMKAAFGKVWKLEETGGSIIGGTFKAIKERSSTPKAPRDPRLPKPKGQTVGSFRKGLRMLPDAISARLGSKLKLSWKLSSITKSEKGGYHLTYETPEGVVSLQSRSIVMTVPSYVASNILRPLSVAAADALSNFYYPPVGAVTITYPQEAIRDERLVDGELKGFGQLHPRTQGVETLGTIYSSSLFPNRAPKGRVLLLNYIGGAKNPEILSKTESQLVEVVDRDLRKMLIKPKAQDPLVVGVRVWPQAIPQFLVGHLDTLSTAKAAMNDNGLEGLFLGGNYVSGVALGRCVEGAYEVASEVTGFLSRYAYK

[4] = target: T2, Protoporphyrinogen oxidase, chloroplastic (Nicotiana tabacum); assay: Inhibition of Galium aparine protoporphyrinogen oxidase by post-emergence herbicidal activity assay
[5] = target: T3, Protoporphyrinogen oxidase (Medicago truncatula) (UniProt G7L3C0); assay: Inhibition of Viola arvensis protoporphyrinogen oxidase by post-emergence herbicidal activity assay
T3 sequence (whole entry): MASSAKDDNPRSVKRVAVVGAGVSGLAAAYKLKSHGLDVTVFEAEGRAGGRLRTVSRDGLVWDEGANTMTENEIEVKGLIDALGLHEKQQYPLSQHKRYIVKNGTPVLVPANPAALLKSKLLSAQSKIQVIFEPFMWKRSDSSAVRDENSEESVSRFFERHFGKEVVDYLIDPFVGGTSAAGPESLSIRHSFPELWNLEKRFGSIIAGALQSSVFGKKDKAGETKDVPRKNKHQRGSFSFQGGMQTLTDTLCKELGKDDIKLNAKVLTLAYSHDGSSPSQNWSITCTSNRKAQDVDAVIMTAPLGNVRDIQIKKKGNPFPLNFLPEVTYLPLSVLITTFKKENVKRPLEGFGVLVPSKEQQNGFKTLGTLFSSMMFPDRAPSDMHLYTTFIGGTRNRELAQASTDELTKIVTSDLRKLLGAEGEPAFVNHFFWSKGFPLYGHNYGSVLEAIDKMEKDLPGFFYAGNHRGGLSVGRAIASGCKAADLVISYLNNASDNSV

[6] = target: T4, Protoporphyrinogen IX oxidase (Cichorium intybus) (UniProt Q9SPL6); assay: Inhibition of Tripleurospermum maritimum subsp. inodorum protoporphyrinogen oxidase by post-emergence herbicidal activity assay
T4 sequence (whole entry): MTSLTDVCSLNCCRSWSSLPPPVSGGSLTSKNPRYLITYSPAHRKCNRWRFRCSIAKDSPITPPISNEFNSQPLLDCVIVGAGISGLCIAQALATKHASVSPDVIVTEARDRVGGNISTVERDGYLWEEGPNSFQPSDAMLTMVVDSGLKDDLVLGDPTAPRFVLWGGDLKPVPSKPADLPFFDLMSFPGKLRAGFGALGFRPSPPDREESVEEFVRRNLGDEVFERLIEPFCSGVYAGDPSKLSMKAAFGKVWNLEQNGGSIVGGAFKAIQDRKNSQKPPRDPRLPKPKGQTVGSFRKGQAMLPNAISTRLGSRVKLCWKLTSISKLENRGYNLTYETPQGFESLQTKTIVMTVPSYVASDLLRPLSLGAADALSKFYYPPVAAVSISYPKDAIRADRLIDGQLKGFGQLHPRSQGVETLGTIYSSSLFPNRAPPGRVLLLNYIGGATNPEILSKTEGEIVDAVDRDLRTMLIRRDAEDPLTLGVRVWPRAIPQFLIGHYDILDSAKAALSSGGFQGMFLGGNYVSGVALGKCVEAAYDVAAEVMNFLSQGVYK

[7] = target: T1, Protoporphyrinogen oxidase 2 (Spinacia oleracea); assay: Inhibition of Stellaria media protoporphyinogen oxidase assessed as herbicidal activity at 100 g/ha measured after 21 days after treatment under greenhouse by time-course analysis; parameters: scale not given: the % may be the effect or the level left
Stellaria media = assay: Herbicidal activity against Stellaria media assessed as killing measured after 21 days after treatment by post-emergence herbicidal activity assay; format: functional
[8] = target: T1, Protoporphyrinogen oxidase 2 (Spinacia oleracea); assay: Inhibition of Stellaria media protoporphyinogen oxidase assessed as herbicidal activity at 50 g/ha measured after 9 days after treatment under greenhouse by time-course analysis; parameters: scale not given: the % may be the effect or the level left
Veronica hederifolia = assay: Herbicidal activity against Veronica hederaefolia assessed as killing measured after 21 days after treatment by post-emergence herbicidal activity assay; format: functional
Viola arvensis = assay: Herbicidal activity against Viola arvensis assessed as killing measured after 21 days after treatment by post-emergence herbicidal activity assay; format: functional
[9] = test system: Tripleurospermum inodorum; assay: Herbicidal activity against Tripleurospermum maritimum subsp. inodorum assessed as killing measured after 21 days after treatment by post-emergence herbicidal activity assay; format: functional
Galium aparine = assay: Herbicidal activity against Galium aparine assessed as killing measured after 21 days after treatment by post-emergence herbicidal activity assay; format: functional
[10] = target: T1, Protoporphyrinogen oxidase 2 (Spinacia oleracea); assay: Inhibition of Stellaria media protoporphyinogen oxidase assessed as herbicidal activity at 100 g/ha measured after 1 days after treatment under greenhouse by time-course analysis
[11] = target: T1, Protoporphyrinogen oxidase 2 (Spinacia oleracea); assay: Inhibition of Stellaria media protoporphyinogen oxidase assessed as herbicidal activity at 0.3 g/ha measured after 14 days after treatment under greenhouse by time-course analysis; parameters: scale not given: the % may be the effect or the level left

SMILES | ED90 [1] [gAi/ha] | Activity [2] [%] | ED90 [3] [gAi/ha] | ED90 [4] [gAi/ha] | ED90 [5] [gAi/ha] | ED90 [6] [gAi/ha] | Activity [7] [%] | ED90 (Stellaria media) [gAi/ha] | Activity [8] [%] | ED90 (Veronica hederifolia) [gAi/ha] | ED90 (Viola arvensis) [gAi/ha] | ED90 [9] [gAi/ha] | ED90 (Galium aparine) [gAi/ha] | Activity [10] | Activity [11] [%]
CCOC(=O)C(Cl)Cc1cc(-n2nc(C)n(C(F)F)c2=O)c(F)cc1Cl (stereo not given) | 10 | > 90 | 1 | 1.5 | 5 | 1.5 |  |  |  |  |  |  |  |  | 
COC(=O)c1cc(Oc2ccc(Cl)cc2Cl)ccc1[N+](=O)[O-] | 100 |  | 30 | 50 | 20 | 15 | < 90 |  |  |  |  |  |  |  | 
N#Cc1cc(I)c(O)c(I)c1 [IOXYNIL] |  |  |  |  |  |  |  | 50 | 90 | 50 | 50 | 30 | 100 |  | 
Cc1cc(Cl)ccc1O[C@@H](C)C(=O)O [MECOPROP-P] |  |  |  |  |  |  |  | 100 |  | 300 | 1000 | 1000 | 300 | Active | 
COC(=O)c1ccccc1S(=O)(=O)NC(=O)Nc1nc(C)nc(OC)n1 [METSULFURON-METHYL] |  |  |  |  |  |  |  | 0.3 |  | 50 | 5 | 0.3 | >100 |  | 90
